Measurements from publication PMC11187260, “Unraveling the interconversion pharmacokinetics and oral bioavailability of the major ginger constituents: [6]-gingerol, [6]-shogaol, and zingerone after single-dose administration in rats” (Frontiers in Pharmacology, 2024).
Values belong to the compound of their own block, whether it stands above or below them.

Tests used:
Format in all cases: in vivo, Female Sprague Dawley rats
[1] = Pharmacokinetics after single intravenous administration (3 mg/kg), plasma LC-MS/MS; conditions: mean ± SD n=6
Method: This study is composed of two sections; the first section involves an investigation of the interconversion pharmacokinetics of the pure compounds, and the second focuses on tissue distribution. All rats were transferred to metabolic cages and fasted overnight for at least 10 h. The animals were then randomly divided into four groups (6 rats/group) to receive a single intravenous (i.v.) administration of either 6G, 6S, zingerone, or vehicle via the lateral tail vein at a dosage of 3 mg/kg. After a 7-week washout period, the rats received 30 mg/kg of the same test compounds through a single oral (p.o.) administration. Following each administration, blood samples (300 µL) were collected in heparinized tubes from the lateral tail vein (while rats were under anesthesia with isoflurane) at specified time points: 0.083, 0.25, 0.5, 1, 1.5, 2, 3, 4, 6, 8, and 24 h after administration. An additional 1 mL of blood sample was collected from each rat at pre-dose (0 h) and post-dose (24 h) for clinical laboratory testing and safety evaluation. All heparinized blood samples were initially centrifuged at 5,000 × g, 4 °C, for 10 min. Subsequently, the plasma was carefully transferred to a cryotube as an aliquot sample and then stored at −40 °C until analysis. Urine and feces were collected during the intervals of 0–24 h and 24–48 h post-dosing, and their weights and volumes were documented. All collected urine and feces samples were stored at −40 °C until analysis. Plasma samples were processed through protein precipitation. In brief, 50 µL of plasma was mixed with 200 µL of methanol containing 50 ng/mL of IS (dihydrocapsaicin). The mixtures were vortexed and centrifuged at 14,000 × g at 4 °C for 10 min. The supernatant was filtered through a […] PVDF membrane (Chrome Tech, MN, USA) before analysis. Investigation of glucuronide conjugations followed a previously published method with some modification ([Wang et al., 2017]; [Songvut et al., 2023]). A 50 μL aliquot of plasma, urine, or feces sample was incubated at 37 °C for a minimum of 30 min with 50 μL of β-glucuronidase (3,000 U/mL) in a sodium phosphate buffer (pH 6.8). For sample extraction, 150 μL of methanol containing 50 μg/L of IS was pipetted into the pre-incubated samples. Subsequently, the mixtures were vortexed for 10 min and then centrifuged at 14,000 × g at 4 °C for 10 min. The supernatants were filtered through a […] PVDF membrane (Chrome Tech, MN, United States) and then analyzed using the validated LC-MS/MS method. Quantitative analysis was conducted using liquid chromatography-tandem mass spectrometry (LC-MS/MS) with a Nexera X2 LCMS-8060NX instrument (Shimadzu, Japan). The instrument included a CBM-40lite system controller, CTO-40C column oven, SIL-40C XR autosampler, LC-40D XR solvent pump unit, FCV-DGU-403 degasser, and 20AH2 switching valve. The LC-MS/MS system was operated with a binary pump and equipped with a triple quadrupole mass spectrometer. Pharmacokinetic parameters were assessed using PK Solutions software (version 2.0) with non-compartmental analysis. The AUC was calculated using the Linear-Log Trapezoidal Method. The maximum plasma concentration (Cmax) and time to reach maximum plasma concentration (Tmax) were taken directly from the graph.

[2] = Pharmacokinetics and oral bioavailability after single oral administration (30 mg/kg), plasma LC-MS/MS; conditions: for AUC(0-t) / AUC(0-∞) / Cmax (obs): mean ± SD n=6; for Tmax (obs): median [IQR]
Method: (§1) This study is composed of two sections; the first section involves an investigation of the interconversion pharmacokinetics of the pure compounds, and the second focuses on tissue distribution. All rats were transferred to metabolic cages and fasted overnight for at least 10 h. The animals were then randomly divided into four groups (6 rats/group) to receive a single intravenous (i.v.) administration of either 6G, 6S, zingerone, or vehicle via the lateral tail vein at a dosage of 3 mg/kg. After a 7-week washout period, the rats received 30 mg/kg of the same test compounds through a single oral (p.o.) administration. Following each administration, blood samples (300 µL) were collected in heparinized tubes from the lateral tail vein (while rats were under anesthesia with isoflurane) at specified time points: 0.083, 0.25, 0.5, 1, 1.5, 2, 3, 4, 6, 8, and 24 h after administration. An additional 1 mL of blood sample was collected from each rat at pre-dose (0 h) and post-dose (24 h) for clinical laboratory testing and safety evaluation. All heparinized blood samples were initially centrifuged at 5,000 × g, 4 °C, for 10 min. Subsequently, the plasma was carefully transferred to a cryotube as an aliquot sample and then stored at −40 °C until analysis. Urine and feces were collected during the intervals of 0–24 h and 24–48 h post-dosing, and their weights and volumes were documented. All collected urine and feces samples were stored at −40 °C until analysis.
Plasma samples were processed through protein precipitation. In brief, 50 µL of plasma was mixed with 200 µL of methanol containing 50 ng/mL of IS (dihydrocapsaicin). The mixtures were vortexed and centrifuged at 14,000 × g at 4 °C for 10 min. The supernatant was filtered through a […] PVDF membrane (Chrome Tech, MN, USA) before analysis.
(§2) Investigation of glucuronide conjugations followed a previously published method with some modification ([Wang et al., 2017]; [Songvut et al., 2023]). A 50 μL aliquot of plasma, urine, or feces sample was incubated at 37 °C for a minimum of 30 min with 50 μL of β-glucuronidase (3,000 U/mL) in a sodium phosphate buffer (pH 6.8). For sample extraction, 150 μL of methanol containing 50 μg/L of IS was pipetted into the pre-incubated samples. Subsequently, the mixtures were vortexed for 10 min and then centrifuged at 14,000 × g at 4 °C for 10 min. The supernatants were filtered through a […] PVDF membrane (Chrome Tech, MN, United States) and then analyzed using the validated LC-MS/MS method.
Quantitative analysis was conducted using liquid chromatography-tandem mass spectrometry (LC-MS/MS) with a Nexera X2 LCMS-8060NX instrument (Shimadzu, Japan). The instrument included a CBM-40lite system controller, CTO-40C column oven, SIL-40C XR autosampler, LC-40D XR solvent pump unit, FCV-DGU-403 degasser, and 20AH2 switching valve. The LC-MS/MS system was operated with a binary pump and equipped with a triple quadrupole mass spectrometer.
Pharmacokinetic parameters were assessed using PK Solutions software (version 2.0) with non-compartmental analysis. The AUC was calculated using the Linear-Log Trapezoidal Method. The maximum plasma concentration (Cmax) and time to reach maximum plasma concentration (Tmax) were taken directly from the graph.
(§3) Plasma concentration-time profiles were plotted using GraphPad Prism 9.3.0 (GraphPad Software, USA). The absolute oral bioavailability was calculated as follows: F = (AUC p.o./dose p.o.)/(AUC i.v./dose i.v.). The percentage recovery of each administered compound was calculated as the total amount of the drug found in urine or feces divided by the administered dose. The tissue-to-plasma concentration ratios (K p) were calculated by dividing the concentration in the tissue by the corresponding plasma concentration at the respective sampling time point.

[3] = Percent recovery in urine and feces after intravenous or oral administration; conditions: % of administered dose
Method: as §1
Urine samples were centrifuged, and 50 µL of urine was extracted with 200 µL of 100% methanol. The mixture was vortexed for 10 min and subsequently centrifuged at 14,000 × g at 4 °C for 10 min. Feces and organs were weighed and homogenized with methanol (50:50% w/v). The supernatants of the extracted urine, feces, and organs were also filtered through a […] PVDF membrane (Chrome Tech, MN, USA) before analysis.
as §2, §3

[4] = plasma analyte after [6]-shogaol i.v. 3 mg/kg
[5] = plasma analyte after [6]-shogaol p.o. 30 mg/kg
[6] = intravenous administration 3 mg/kg of parent compound
[7] = oral administration 30 mg/kg of parent compound
[8] = plasma analyte after zingerone i.v. 3 mg/kg
[9] = plasma analyte after zingerone p.o. 30 mg/kg
[10] = plasma analyte after [6]-gingerol i.v. 3 mg/kg
[11] = plasma analyte after [6]-gingerol p.o. 30 mg/kg

AUC(0-t) [1, 4]: 7,966.49 ± 3,782.71 ng-h/mL
AUC(0-∞) [1, 4]: 7,974.90 ± 3,786.32 ng-h/mL
AUC(0-t) [2, 5]: 11.88 ± 1.87 ng·h/mL
AUC(0-∞) [2, 5]: 11.89 ± 1.87 ng·h/mL
Cmax (obs) [2, 5]: 18.54 ± 6.93 ng/mL
Tmax (obs) [2, 5]: 0.375 [0.25] h
% Recovery excretion, feces T 0–24 h [3, 6]: 0.003 ± 0.003%
% Recovery excretion, feces T 24–48 h [3, 6]: 0.004 ± 0.001%
% Recovery excretion, urine T 0–24 h [3, 6]: 0.153 ± 0.112%
% Recovery excretion, urine T 24–48 h [3, 6]: <0.001%
% Recovery excretion, urine T 0–24 h [3, 7]: 0.042 ± 0.037%
% Recovery excretion, urine T 24–48 h [3, 7]: <0.001%
Compound: CCCCC/C=C/C(=O)CCc1ccc(O[C@@H]2O[C@H](C(=O)O)[C@@H](O)[C@H](O)[C@H]2O)c(OC)c1 [[6]-shogaol glucuronide]

AUC(0-t) [1, 8]: 12,873.76 ± 12,580.54 ng-h/mL
AUC(0-∞) [1, 8]: 12,903.70 ± 12,585.11 ng-h/mL
AUC(0–∞) of glucuronide compared to AUC(0–∞) of unconjugated compound ([2]; after zingerone oral administration 30 mg/kg): 6 fold
AUC(0-t) [2, 9]: 5847.24 ± 134.65 ng·h/mL
AUC(0-∞) [2, 9]: 5847.24 ± 134.65 ng·h/mL
Cmax (obs) [2, 9]: 4593.37 ± 1192.68 ng/mL
Tmax (obs) [2, 9]: 0.25 [0.00] h
% Recovery excretion, urine T 0–24 h [3, 6]: 7.396 ± 6.349%
% Recovery excretion, urine T 24–48 h [3, 6]: <0.001%
% Recovery excretion, urine T 0–24 h [3, 7]: 4.245 ±3.009%
% Recovery excretion, urine T 24–48 h [3, 7]: 0.166 ± 0.075%
Compound: COc1cc(CCC(C)=O)ccc1O[C@@H]1O[C@H](C(=O)O)[C@@H](O)[C@H](O)[C@H]1O [zingerone glucuronide]

AUC(0-t) [1, 10]: 11,087.06 ± 7,432.61 ng-h/mL
AUC(0-∞) [1, 10]: 11,087.09 ± 7,432.598 ng-h/mL
AUC(0-t) [2, 11]: 549.22 ± 272.42 ng·h/mL
AUC(0-∞) [2, 11]: 603.05 ± 268.67 ng·h/mL
Cmax (obs) [2, 11]: 539.42 ± 377.66 ng/mL
Tmax (obs) [2, 11]: 0.25 [0.00] h
% Recovery excretion, urine T 0–24 h [3, 6]: 5.712 ± 2.768%
% Recovery excretion, urine T 24–48 h [3, 6]: 0.146 ± 0.073%
% Recovery excretion, urine T 0–24 h [3, 7]: 3.416 ± 1.735%
% Recovery excretion, urine T 24–48 h [3, 7]: 0.036 ± 0.027%
Compound: [6]-gingerol glucuronide
